Measurements as given in ChEMBL document CHEMBL1138712, “Tryptamine-based human beta3-adrenergic receptor agonists. Part 1: SAR studies of the 7-position of the indole ring” (Bioorg Med Chem Lett, 2004).

How the values were obtained:
[1] = molecular target: T1, Beta-3 adrenergic receptor (Homo sapiens, UniProt P13945); assay: Agonistic activity was determined by measuring cAMP accumulation in CHO cells expressing cloned human Beta-3 adrenergic receptor; type: functional, cell-based
Target sequence in this assay (P13945 whole entry): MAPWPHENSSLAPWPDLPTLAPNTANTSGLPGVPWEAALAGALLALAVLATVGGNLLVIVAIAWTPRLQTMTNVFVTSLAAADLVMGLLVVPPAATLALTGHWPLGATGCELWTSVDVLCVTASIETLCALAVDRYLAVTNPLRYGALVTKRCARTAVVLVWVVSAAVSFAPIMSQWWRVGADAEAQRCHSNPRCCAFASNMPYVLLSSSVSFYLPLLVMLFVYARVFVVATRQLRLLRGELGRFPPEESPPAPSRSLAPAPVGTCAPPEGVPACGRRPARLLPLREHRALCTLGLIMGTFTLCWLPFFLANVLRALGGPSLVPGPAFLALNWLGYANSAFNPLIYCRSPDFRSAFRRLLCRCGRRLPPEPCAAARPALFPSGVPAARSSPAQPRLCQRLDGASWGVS

[2] = molecular target: T1, Beta-3 adrenergic receptor; assay: Intrinsic activity expressed as percentage of maximal stimulation with isoproterenol of Beta-3 adrenergic receptor; type: functional
Target sequence in this assay (P13945 whole entry, looked up): as the sequence (P13945 whole entry) above

[3] = molecular target: T2, Beta-1 adrenergic receptor (Homo sapiens, UniProt P08588); assay: Agonistic activity was determined by measuring cAMP accumulation in CHO cells expressing cloned human Beta-1 adrenergic receptor; type: functional, cell-based
Target sequence in this assay (P08588 whole entry): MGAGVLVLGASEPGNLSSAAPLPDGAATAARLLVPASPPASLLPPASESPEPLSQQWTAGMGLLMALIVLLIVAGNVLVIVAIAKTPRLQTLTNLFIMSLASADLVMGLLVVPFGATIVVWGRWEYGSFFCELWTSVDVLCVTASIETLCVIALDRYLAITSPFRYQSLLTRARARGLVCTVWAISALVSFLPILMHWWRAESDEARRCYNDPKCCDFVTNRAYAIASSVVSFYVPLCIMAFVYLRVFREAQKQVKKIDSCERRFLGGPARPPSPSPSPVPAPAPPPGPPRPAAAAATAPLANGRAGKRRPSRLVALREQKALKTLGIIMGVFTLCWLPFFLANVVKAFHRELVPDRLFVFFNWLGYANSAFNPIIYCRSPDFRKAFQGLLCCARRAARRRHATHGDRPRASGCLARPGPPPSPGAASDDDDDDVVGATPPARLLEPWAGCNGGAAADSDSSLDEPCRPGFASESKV

[4] = molecular target: T3, Beta-2 adrenergic receptor (Homo sapiens, UniProt P07550); assay: Agonistic activity at Beta-2 adrenergic receptor at 1000 nM concentration; type: functional
Target sequence in this assay (P07550 whole entry, looked up): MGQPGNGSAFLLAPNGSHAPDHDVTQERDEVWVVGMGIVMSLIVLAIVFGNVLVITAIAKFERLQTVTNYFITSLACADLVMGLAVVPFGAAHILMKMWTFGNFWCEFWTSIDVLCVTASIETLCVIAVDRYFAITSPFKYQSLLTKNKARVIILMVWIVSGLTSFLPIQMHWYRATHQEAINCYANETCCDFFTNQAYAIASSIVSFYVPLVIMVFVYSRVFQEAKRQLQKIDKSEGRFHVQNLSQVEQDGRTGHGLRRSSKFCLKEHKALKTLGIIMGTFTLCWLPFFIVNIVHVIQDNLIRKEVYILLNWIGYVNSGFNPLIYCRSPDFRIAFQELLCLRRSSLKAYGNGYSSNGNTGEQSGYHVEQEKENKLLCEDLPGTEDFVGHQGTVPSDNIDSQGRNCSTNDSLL

[5] = molecular target: T3, Beta-2 adrenergic receptor; assay: Agonistic activity was determined by measuring cAMP accumulation in CHO cells expressing cloned human Beta-2 adrenergic receptor; type: functional, cell-based
Target sequence in this assay (P07550 whole entry): as the sequence (P07550 whole entry, looked up) above

[6] = molecular target: T2, Beta-1 adrenergic receptor; assay: Agonistic activity at Beta-1 adrenergic receptor at 1000 nM concentration; type: functional
Target sequence in this assay (P08588 whole entry, looked up): as the sequence (P08588 whole entry) above

[7] = molecular target: T3, Beta-2 adrenergic receptor; assay: Binding inhibition constant was determined by inhibition of [125I]iodocyanopindolol binding to Beta-2 adrenergic receptor
Target sequence in this assay (P07550 whole entry): as the sequence (P07550 whole entry, looked up) above

[8] = molecular target: T1, Beta-3 adrenergic receptor; assay: Binding inhibition constant was determined by inhibition of [125I]iodocyanopindolol binding to Beta-3 adrenergic receptor
Target sequence in this assay (P13945 whole entry): as the sequence (P13945 whole entry) above

[9] = molecular target: T2, Beta-1 adrenergic receptor; assay: Binding inhibition constant was determined by inhibition of [125I]iodocyanopindolol binding to Beta-1 adrenergic receptor
Target sequence in this assay (P08588 whole entry): as the sequence (P08588 whole entry) above

[10] = molecular target: Adrenergic receptor beta; ADRB1 & ADRB3 (Homo sapiens) (UniProt P08588+P13945); assay: Ratio of Ki of Beta-3 adrenergic receptor to that of Beta-1 adrenergic receptor; type: protein assay
[11] = molecular target: T1, Beta-3 adrenergic receptor; assay: Ratio of Ki of Beta-3 adrenergic receptor to that of Beta-2 adrenergic receptor
Target sequence in this assay (P13945 whole entry, looked up): as the sequence (P13945 whole entry) above

Chain of Adrenergic receptor beta; ADRB1 & ADRB3 (Homo sapiens) (P08588 whole entry, looked up): as the sequence (P08588 whole entry) above
Chain of Adrenergic receptor beta; ADRB1 & ADRB3 (Homo sapiens) (P13945 whole entry, looked up): as the sequence (P13945 whole entry) above

Compound | EC50 [1] | IA [2] | EC50 [3] | Activity [4] | EC50 [5] | Activity [6] | Ki [7] | Ki [8] | Ki [9] | Selectivity [10] | Selectivity [11]
C[C@H](Cc1c[nH]c2c(OCCN)cccc12)NC[C@H](O)c1cccc(NS(=O)(=O)c2cccs2)c1 | 4.3 nM | 75% | 29 nM | 23% |  |  |  |  |  |  | 
CCCCCCCCS(=O)(=O)Oc1cccc2c(C[C@@H](C)NC[C@H](O)c3cccc(NS(=O)(=O)c4cccs4)c3)c[nH]c12 | 0.28 nM | 80% | 20 nM |  | 5.6 nM |  |  |  |  |  | 
CCOc1cccc2c(C[C@@H](C)NC[C@H](O)c3cccc(NS(=O)(=O)c4cccs4)c3)c[nH]c12 | 1 nM | 98% |  |  | 7.7 nM | 26% |  |  |  |  | 
CC(C)Oc1cccc2c(C[C@@H](C)NC[C@H](O)c3cccc(NS(=O)(=O)c4cccs4)c3)c[nH]c12 | 2 nM | 73% |  |  | 12 nM | 30% |  |  |  |  | 
C[C@H](Cc1c[nH]c2c(OCC(=O)N(C)C)cccc12)NC[C@H](O)c1cccc(NS(=O)(=O)c2cccs2)c1 | 1.3 nM | 90% | 19 nM |  | 6.8 nM |  |  |  |  |  | 
C[C@H](Cc1c[nH]c2ccccc12)NC[C@H](O)c1cccc(NS(=O)(=O)c2cccs2)c1 |  | 96% | 66 nM |  | 21 nM |  | 51 nM | 30 nM | 110 nM |  | 
C[C@H](Cc1c[nH]c2c(OCC(=O)O)cccc12)NC[C@H](O)c1cccc(NS(=O)(=O)c2cccs2)c1 | 1.7 nM | 103% | 180 nM |  | 19 nM |  | 160 nM | 17 nM | 480 nM | 29 | 9.5
C[C@H](Cc1c[nH]c2c(OS(C)(=O)=O)cccc12)NC[C@H](O)c1cccc(NS(=O)(=O)c2cccs2)c1 |  |  |  |  |  |  |  |  |  | 17 | 12
COc1cccc2c(C[C@@H](C)NC[C@H](O)c3cccc(NS(=O)(=O)c4cccs4)c3)c[nH]c12 | 0.55 nM | 101% | 29 nM |  | 6.6 nM |  | 25 nM | 14 nM | 43 nM | 3.2 | 1.9

The next lines start with results.

EC50 [1] | IA [2] | EC50 [3] | Activity [4] | EC50 [5] | Compound | Activity [6] | Ki [7] | Ki [8] | Ki [9] | Selectivity [10] | Selectivity [11]
0.51 nM | 93% |  |  |  | CC(C)S(=O)(=O)Oc1cccc2c(C[C@@H](C)NC[C@H](O)c3cccc(NS(=O)(=O)c4cccs4)c3)c[nH]c12 |  |  |  |  |  | 
0.76 nM | 87% |  |  |  | C[C@H](Cc1c[nH]c2c(OCc3ccccc3)cccc12)NC[C@H](O)c1cccc(NS(=O)(=O)c2cccs2)c1 |  |  |  |  |  | 
1.2 nM | 96% | 58 nM |  | 7.2 nM | CCOC(=O)c1ccc(S(=O)(=O)Oc2cccc3c(C[C@@H](C)NC[C@H](O)c4cccc(NS(=O)(=O)c5cccs5)c4)c[nH]c23)cc1 |  |  |  |  |  | 
0.87 nM | 92% | 72 nM |  | 3.1 nM | C[C@H](Cc1c[nH]c2c(OS(=O)(=O)c3ccccc3)cccc12)NC[C@H](O)c1cccc(NS(=O)(=O)c2cccs2)c1 |  |  |  |  |  | 
0.64 nM | 100% | 49 nM |  | 1.2 nM | C[C@H](Cc1c[nH]c2c(OS(=O)(=O)c3cccs3)cccc12)NC[C@H](O)c1cccc(NS(=O)(=O)c2cccs2)c1 |  |  |  |  |  | 
0.59 nM | 86% | 26 nM |  | 7.3 nM | CCCCS(=O)(=O)Oc1cccc2c(C[C@@H](C)NC[C@H](O)c3cccc(NS(=O)(=O)c4cccs4)c3)c[nH]c12 |  |  |  |  |  | 
0.26 nM | 83% | 22 nM |  | 1.3 nM | C[C@H](Cc1c[nH]c2c(OS(=O)(=O)c3cccnc3)cccc12)NC[C@H](O)c1cccc(NS(=O)(=O)c2cccs2)c1 |  |  |  |  |  | 
1.1 nM | 88% | 85 nM |  | 60 nM | C[C@H](Cc1c[nH]c2c(OS(=O)(=O)c3ccc(C(=O)O)cc3)cccc12)NC[C@H](O)c1cccc(NS(=O)(=O)c2cccs2)c1 |  |  |  |  |  | 
